Results published in patent publication US20260159474A1, “Aminoindane Compounds and Compositions and Methods of Their Therapeutic Use” (Solvonis Therapeutics Ireland Holdings Limited, priority 2021, published 2026).

Tests used:
[1] = Plasma protein binding by equilibrium dialysis, human plasma; type: in vitro ADME; details: for Human Plasma (Fu %): fraction unbound, 0.5 μM; for fraction unbound at 5 h, 0.5 μM: human, plasma, pH 7.4, read-out: Human Plasma (Fu %)
Description: Methods: Plasma protein binding and blood tissue binding of test items (0.5 μM) was determined using biological samples from male Sprague Dawley (SD) rats and humans. […] Dexamethasone was used as a control compound for lung tissue binding. Various biological samples were spiked with test compounds according to the methods that follow.
Preparation of plasma or blood samples: An appropriate amount of test compound was dissolved in DMSO to yield a 10 mM solution. Further dilutions, to obtain 50 μM working solutions (WS), were then prepared using 50% acetonitrile in Milli-Q water. These 100×WS were used to spike plasma or blood to obtain a final concentration of 0.5 μM. From this initial spiking solution, control samples (n=3), referred to as T=0, were immediately extracted and used to calculate the recovery of the test item.
An equilibrium dialysis method was performed to determine protein binding in the various biological samples described herein. Materials were prepared and methods were in accordance with the following procedures.
Membranes were prepared for use in the equilibrium dialysis experiment. by soaking in deionized water for at least 60 minutes. After this period, 20% of pure ethanol was added, and the membranes were left in this solution for at least 20 minutes. The membranes were then rinsed in Milli-Q water prior to use.
To initiate the experiment, 150 μL of test item-free buffer (isotonic phosphate buffer for plasma and blood, artificial CSF buffer for brain or HBSS buffer for lung) was dispensed on one half-well of a 96-well dialyzer apparatus (HTDialysis LLC), and 150 μL of spiked matrix (plasma, blood, brain or lung) was loaded on the other half-well. Alternative volumes may be used according to the operating instructions of HTDialysis.
Dialysis buffer was prepared by dissolving Na2HPO4 8.69 g, KH2PO4 1.90 g, and NaCl 4.11 g in […] of MilliQ water, and adjusting the pH to 7.4 with H3PO4. At the end of the equilibration period (device is sealed and incubated under shaking for 5 hours at 37° C.), 50 μL of dialysed matrix will be added to 50 μL of corresponding test item free dialysed buffer, and vice versa for buffer, such that the volume of buffer to matrix will be the same. Samples were extracted by protein precipitation with 300 μL of acetonitrile containing rolipram (for positive ionization mode) or diclofenac (for negative ionization mode) as internal standard and centrifuged for 10 minutes at 2800 rpm. Supernatants were collected (100 μL), diluted with 18% ACN in Milli Q water (200 μL).
Samples were then injected onto an HPLC MS/MS or UPLC MS/MS system. In order to control the integrity of the membrane after the dialysis process, the presence of protein was assessed in the buffer compartment. 5 μL of dialysed buffer will be added with 250 μL of Bio-Rad protein assay reagent (Bio-Rad) diluted 1:5 with Milli-Q water. A change in color from brown to a brilliant blue indicates protein contamination. Contaminated samples were excluded from all calculations.
Samples were analyzed in a LC-MS/MS system using an analytical method to monitor the compound to internal standard peak area ratios as representative of the compound concentrations. Alternatively, samples were analyzed by RapidFire.
Protein binding in plasma, blood, brain, and lung tissue samples were determined with the following formula: Afu=Buffer/x, wherein “x” may be plasma, blood, brain, or lung, and “Afu” is the apparent fraction unbound, and the other variables refer to the analyte/internal standard ratio determined in their specific compartment (buffer, plasma, blood, brain homogenate, and lung homogenate); Fucr-(1/D)/[(1/Afu)-1+(1/D)], wherein fucr is the fraction unbound corrected, D is the matrix dilution factor (D=1 for plasma, 2 for blood, 3 for brain, 7 for lung). % Binding=(1−fucr)×100 and % Unbound=100—% Bound. See, e.g., Kalvass et al., Drug Metab Dispos., 2018; 46(4):458-469. […]

[2] = Intrinsic clearance in rat liver microsomes; type: in vitro ADME; details: for microsomal CLint at 0.5 μM: pH 7.4, read-out: Cl (μL/min/mg protein) - Rat Microsomes
Description: Methods: The general procedure involved incubating test compounds with liver microsomes and subsequently detecting the compounds to determine intrinsic clearance. Clearance was estimated from the rate of depletion k (min-1), the volume of the incubation V (mL), and the amount of microsomal proteins in the incubation M (mg). Intrinsic clearance is defined by the following equation: Clint=k*V/M.
Values for CLint are expressed as μL/min/mg liver microsomes. Verapamil and dextromethorphan were used as positive controls for CYP3A4 and CYP2D6 isoforms, respectively, to confirm metabolic activity. Stock solutions were prepared in DMSO for therapeutic compounds and positive controls verapamil and dextromethorphan (10 mM for all). Working solutions were prepared by diluting stock in MeOH to reach […]. However, this concentration can be varied, e.g., when the test item is not soluble in the selected solvent.
Prior to experimentation, frozen liver microsomes were thawed in a water bath at 37° C. and kept on ice until use. The microsomes were then diluted with 50 mM potassium phosphate buffer pH 7.4 to a protein concentration of 0.56 mg/mL. To prepare test and control items in final incubation conditions, 5 μL of test compound and positive control working solutions were added to 445 μL of microsomes incubation mixture at 0.56 mg/mL and 50 μL of regenerating system.
As it relates to the automated incubation procedure for microsomes incubation, the following procedure was followed. Briefly, 150 μL of quenching solution (ACN containing an appropriate Internal Standard, i.e. Rolipram and Diclofenac for positive and negative ion mode, respectively) was manually dispensed or dispensed by using the Hamilton system in each well of 96 deep well 1 mL plates. Next, 800-1000 μL-aliquots of NADPH regenerating system were pre-warmed at 37° C. for 5 minutes. 5 μL of 50 µM test items and control were added to 445 μL of the 0.56 mg/mL microsomes solution, and the incubation mixture was pre-warmed in a 96 deep well 2 mL plate (incubation plate) at 37° C. for 5 minutes. The incubation reactions were initiated by adding 50 μL of pre-warmed NADPH regenerating system to the incubation mixtures.
50 μL-aliquots were sampled from incubation mixtures at: 0, 3, 10, 15, 30, and 45 minutes. The samples were centrifuged at 3,000 rpm for 10 minutes and further diluted in order to optimize the analytical condition prior to the LC MS/MS or Rapid Fire-MS/MS analysis. Incubations of test items were run in duplicate (n=2) with a single positive control (n=1). For sample analysis, an LC-MS/MS system was used to monitor the test samples/control to internal standard peak area ratios as representative of the test or control item's concentration. Data from test item incubation was processed to give mean values where applicable. Metabolic stability was calculated from the ratio of peak area of the remaining test or control item with internal standard versus time.
Peak areas for test and control items were integrated using Integrator Software from Agilent or Analyst or MultiQuant Software from AB SciexTM and were exported to XLFit or Morphit (The Edge), which were designed to calculate in vitro metabolic stability parameters. The integrated peak areas of the test and control items at the selected time points were divided by the respective peak areas of the IS, and the percent of parent remaining was calculated by normalizing the peak area ratio of parent to IS at 0 min. Observed rate constant (kobs) for parent degradation was calculated by determining the slope of the line of the graph of the natural log of percentage parent remaining versus time of incubation. This was scaled for the protein in the incubation relative to that in the liver.

SMILES	Human Plasma (Fu %) [1]	fraction unbound at 5 h, 0.5 μM [1]	microsomal CLint at 0.5 μM [2]	Cl (μL/min/mg protein) - Rat Microsomes [2]
COC(=O)c1cc2c(cc1OC)CC(N)C2 (stereo not drawn) [CMP-401]	>50%	> 0.5	121 µL/min/mg	–
COC(=O)COc1ccc2c(c1)CC(N)C2 (stereo not drawn) [CMP-402]	>50%	> 0.5	2050 µL/min/mg	greatest clearance
COC(=O)c1ccc2c(c1)CC(N)C2 (stereo not drawn) [CMP-405, 2-aminoindane-5-methylcarboxylate]	high binding in plasma specimens and Low	–	143 µL/min/mg	–
CNC(C)Cc1ccc2c(c1)OCO2 (stereo not drawn) [MDMA]	>50%	–	–	395 μL/min/mg protein
COc1ccc2c(c1)CC(N)C2 (stereo not drawn) [MEAI, 5-methoxy-2-aminoindane]	–	> 0.5	156 µL/min/mg	–
COc1cc2c(cc1C)CC(N)C2 (stereo not drawn) [MMAI, 5-methoxy-6-methyl-2-aminoindane]	–	> 0.5	200 µL/min/mg	–
